Results from patent publication US9492471B2, “Methods of treating a disease or disorder associated with Bruton'S Tyrosine Kinase” (Celgene Avilomics Research, Inc., priority 2013, dated 2016).
Like-named read-outs stand apart in the source and are kept apart here.

Key:
Test in all cases: HotSpot kinase profiling
Type in all cases: biochemical
STK38L/NDR2 = target: T1, STK38L/NDR2 (Homo sapiens, UniProt Q9Y2H1)
T1 construct: purchased Reaction Biology Corp
In short: (§1)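 Percent inhibition, averaged when run more than once and referenced to a DMSO negative control, came from a radioactive filter-binding readout on P81 paper. Reactions of kinase with freshly made substrate and cofactors ran for 2 h at room temperature.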

GLK/MAP4K3 = target: T2, GLK/MAP4K3 (Homo sapiens, UniProt Q8IVH8)
T2 construct: purchased Reaction Biology Corp
T2 sequence (Q8IVH8 1-894): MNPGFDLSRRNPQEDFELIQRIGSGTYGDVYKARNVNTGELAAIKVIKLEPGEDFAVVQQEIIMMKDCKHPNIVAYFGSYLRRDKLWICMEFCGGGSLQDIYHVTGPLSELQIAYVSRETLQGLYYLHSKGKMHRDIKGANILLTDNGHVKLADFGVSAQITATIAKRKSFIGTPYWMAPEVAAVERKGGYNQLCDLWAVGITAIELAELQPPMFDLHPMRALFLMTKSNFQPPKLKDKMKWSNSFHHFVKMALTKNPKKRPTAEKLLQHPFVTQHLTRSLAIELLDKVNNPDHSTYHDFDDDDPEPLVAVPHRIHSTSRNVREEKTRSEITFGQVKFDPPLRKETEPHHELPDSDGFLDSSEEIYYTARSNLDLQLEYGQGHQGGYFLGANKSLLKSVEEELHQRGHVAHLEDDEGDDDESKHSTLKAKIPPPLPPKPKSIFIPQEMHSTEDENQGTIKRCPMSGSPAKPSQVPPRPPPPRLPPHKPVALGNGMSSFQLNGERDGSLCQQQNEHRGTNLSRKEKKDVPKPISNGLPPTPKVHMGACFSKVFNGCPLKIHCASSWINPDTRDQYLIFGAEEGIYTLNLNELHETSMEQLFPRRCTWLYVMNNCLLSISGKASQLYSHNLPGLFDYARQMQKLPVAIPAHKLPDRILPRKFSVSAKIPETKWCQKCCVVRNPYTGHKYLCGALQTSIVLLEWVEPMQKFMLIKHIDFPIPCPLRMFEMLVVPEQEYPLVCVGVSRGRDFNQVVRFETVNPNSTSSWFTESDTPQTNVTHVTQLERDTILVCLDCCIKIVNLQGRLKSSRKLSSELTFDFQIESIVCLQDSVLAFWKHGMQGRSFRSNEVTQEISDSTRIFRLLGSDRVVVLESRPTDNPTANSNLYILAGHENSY
In short: as §1

SNARK/NUAK2 = target: T3, SNARK/NUAK2 (Homo sapiens, UniProt Q9H093)
T3 construct: purchased Reaction Biology Corp
T3 sequence (Q9H093 1-628): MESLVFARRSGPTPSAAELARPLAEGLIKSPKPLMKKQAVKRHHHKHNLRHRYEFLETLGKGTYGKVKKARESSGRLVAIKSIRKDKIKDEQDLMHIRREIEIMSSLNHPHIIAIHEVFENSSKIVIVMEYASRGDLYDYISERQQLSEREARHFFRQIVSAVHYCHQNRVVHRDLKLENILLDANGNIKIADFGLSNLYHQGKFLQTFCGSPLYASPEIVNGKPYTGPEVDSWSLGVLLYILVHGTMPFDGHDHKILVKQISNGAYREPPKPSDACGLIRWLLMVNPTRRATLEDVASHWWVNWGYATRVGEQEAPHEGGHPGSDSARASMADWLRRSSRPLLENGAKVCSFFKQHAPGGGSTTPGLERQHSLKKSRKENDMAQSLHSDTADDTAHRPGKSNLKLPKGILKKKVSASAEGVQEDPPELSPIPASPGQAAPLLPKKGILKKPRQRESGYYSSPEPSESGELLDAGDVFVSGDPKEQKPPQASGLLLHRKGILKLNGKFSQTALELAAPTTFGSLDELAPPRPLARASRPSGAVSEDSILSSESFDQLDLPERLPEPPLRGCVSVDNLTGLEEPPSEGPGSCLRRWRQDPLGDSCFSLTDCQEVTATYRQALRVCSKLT
In short: as §1

CAMK1a = target: T4, CAMK1a (Homo sapiens, UniProt Q14012)
T4 construct: purchased Reaction Biology Corp
T4 sequence (Q14012 whole entry): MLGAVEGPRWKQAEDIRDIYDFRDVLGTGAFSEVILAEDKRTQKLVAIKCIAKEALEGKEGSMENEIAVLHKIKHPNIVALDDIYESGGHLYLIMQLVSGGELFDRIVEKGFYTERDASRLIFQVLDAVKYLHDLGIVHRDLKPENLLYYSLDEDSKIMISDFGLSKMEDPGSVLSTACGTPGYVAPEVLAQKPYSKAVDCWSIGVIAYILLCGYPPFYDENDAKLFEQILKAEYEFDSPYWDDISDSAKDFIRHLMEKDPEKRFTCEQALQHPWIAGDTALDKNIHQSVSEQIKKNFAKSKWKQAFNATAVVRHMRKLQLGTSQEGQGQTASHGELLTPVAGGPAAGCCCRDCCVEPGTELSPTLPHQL
In short: as §1

FRK/PTK5 = target: T5, FRK/PTK5 (Homo sapiens, UniProt P42685)
T5 construct: purchased Reaction Biology Corp
T5 sequence (P42685 whole entry): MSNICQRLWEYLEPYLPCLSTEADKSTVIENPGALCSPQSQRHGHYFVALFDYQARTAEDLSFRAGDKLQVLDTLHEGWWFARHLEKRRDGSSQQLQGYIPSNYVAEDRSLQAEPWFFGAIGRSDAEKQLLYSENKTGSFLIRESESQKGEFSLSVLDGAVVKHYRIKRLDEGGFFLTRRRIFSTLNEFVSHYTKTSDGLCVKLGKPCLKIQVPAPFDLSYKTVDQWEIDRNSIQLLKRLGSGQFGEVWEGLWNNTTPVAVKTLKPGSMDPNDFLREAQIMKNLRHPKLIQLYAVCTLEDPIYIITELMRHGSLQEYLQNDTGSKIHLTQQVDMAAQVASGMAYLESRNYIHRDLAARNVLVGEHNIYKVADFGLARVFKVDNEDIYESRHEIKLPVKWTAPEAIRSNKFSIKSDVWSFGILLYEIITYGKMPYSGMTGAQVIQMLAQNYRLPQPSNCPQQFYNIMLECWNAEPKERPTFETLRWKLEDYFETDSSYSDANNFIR
In short: as §1

CAMK2a = target: T6, CAMK2a (Homo sapiens, UniProt Q9UQM7)
T6 construct: purchased Reaction Biology Corp
T6 sequence (Q9UQM7 whole entry): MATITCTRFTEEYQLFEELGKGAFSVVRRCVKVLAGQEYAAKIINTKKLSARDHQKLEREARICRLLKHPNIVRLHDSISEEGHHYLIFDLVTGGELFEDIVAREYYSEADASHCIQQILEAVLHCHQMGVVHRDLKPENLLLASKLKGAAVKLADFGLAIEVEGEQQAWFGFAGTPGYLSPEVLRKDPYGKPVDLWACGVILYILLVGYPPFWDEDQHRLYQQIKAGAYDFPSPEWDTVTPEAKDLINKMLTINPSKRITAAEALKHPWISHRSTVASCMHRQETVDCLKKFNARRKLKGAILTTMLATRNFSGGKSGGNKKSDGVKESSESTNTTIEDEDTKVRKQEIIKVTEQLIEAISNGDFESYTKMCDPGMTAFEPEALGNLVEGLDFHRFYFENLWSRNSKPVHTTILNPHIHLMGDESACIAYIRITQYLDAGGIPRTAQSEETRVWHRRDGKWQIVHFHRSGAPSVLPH
In short: as §1

[1] = read-out: % Enzyme Activity (relative to DMSO controls) Run 1
[2] = read-out: % Enzyme Activity (relative to DMSO controls) Run 2

T1 sequence (Q9Y2H1 whole entry): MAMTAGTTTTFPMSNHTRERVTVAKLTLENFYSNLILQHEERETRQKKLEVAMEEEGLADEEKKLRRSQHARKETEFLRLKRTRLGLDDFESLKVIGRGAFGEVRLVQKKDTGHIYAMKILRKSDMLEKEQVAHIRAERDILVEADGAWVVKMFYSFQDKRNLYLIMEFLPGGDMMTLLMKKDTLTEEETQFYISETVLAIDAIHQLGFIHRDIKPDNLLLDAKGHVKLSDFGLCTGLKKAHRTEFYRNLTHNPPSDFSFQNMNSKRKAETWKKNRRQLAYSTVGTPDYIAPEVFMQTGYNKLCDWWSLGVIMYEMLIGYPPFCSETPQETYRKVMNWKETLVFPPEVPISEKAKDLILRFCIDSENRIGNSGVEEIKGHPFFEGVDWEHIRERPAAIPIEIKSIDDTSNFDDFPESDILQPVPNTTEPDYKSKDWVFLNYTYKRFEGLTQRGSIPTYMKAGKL

C=CC(=O)Nc1cccc(Nc2nc(Nc3ccc(OCCOC)c(F)c3)ncc2F)c1 [Compound 2]
inhibition at 3 µM (STK38L/NDR2): -1.33%
remaining activity at 3 µM (STK38L/NDR2; [1]): 107%
remaining activity at 3 µM (STK38L/NDR2; [2]): 96%
inhibition at 3 µM (GLK/MAP4K3): -5.08%
remaining activity at 3 µM (GLK/MAP4K3; [1]): 102%
remaining activity at 3 µM (GLK/MAP4K3; [2]): 108%
inhibition at 3 µM (SNARK/NUAK2): 15.7%
remaining activity at 3 µM (SNARK/NUAK2; [1]): 83.7%
remaining activity at 3 µM (SNARK/NUAK2; [2]): 84.9%
inhibition at 3 µM (CAMK1a): -10.4%
remaining activity at 3 µM (CAMK1a; [1]): 109%
remaining activity at 3 µM (CAMK1a; [2]): 112%
inhibition at 3 µM (FRK/PTK5): 0.75%
remaining activity at 3 µM (FRK/PTK5; [1]): 101%
remaining activity at 3 µM (FRK/PTK5; [2]): 98%
inhibition at 3 µM (CAMK2a): -9.6%
remaining activity at 3 µM (CAMK2a; [1]): 109%
remaining activity at 3 µM (CAMK2a; [2]): 110%
